Laboratory results taken from ChEMBL document CHEMBL3885881, “DrugMatrix”.

Species: Rattus norvegicus
Test: DrugMatrix - Regimen: Daily Repeat
Format: toxicity, organism-based, Sprague-Dawley
Parameters: regimen Daily Repeat, gender Male, age 6-8 weeks
Details: in vivo, po, route oral GAVAGE, vehicle .5 % CMC; for ABSOLUTE BASOPHIL / ABSOLUTE EOSINOPHIL / ABSOLUTE LYMPHOCYTE / ABSOLUTE MONOCYTE / ABSOLUTE SEGMENTED NEUTROPHIL / BASOPHIL / EOSINOPHIL / ERYTHROCYTE COUNT / HEMATOCRIT / HEMOGLOBIN / LEUKOCYTE COUNT / LYMPHOCYTE / MEAN CORPUSCULAR HEMOGLOBIN / MEAN CORPUSCULAR HEMOGLOBIN CONCENTRATION / MEAN CORPUSCULAR VOLUME / MONOCYTE / NEUTROPHIL / NUCLEATED RED BLOOD CELLS / PLATELET COUNT: tissue Blood; for ALANINE AMINOTRANSFERASE / ALBUMIN / ALKALINE PHOSPHATASE / ASPARTATE AMINOTRANSFERASE / BLOOD UREA NITROGEN / CARBON DIOXIDE / CHLORIDE / CHOLESTEROL / CREATINE PHOSPHOKINASE / CREATININE / GLUCOSE / LACTATE DEHYDROGENASE / LIPASE / PHOSPHORUS / POTASSIUM / SODIUM / TOTAL BILIRUBIN / TOTAL PROTEIN / URIC ACID: tissue Plasma
[1] = 20 mg/kg, 120 h, dose level Low, time 5 day
[2] = 1600 mg/kg, 72 h, dose level High, time 3 day
[3] = 1600 mg/kg, 120 h, dose level High, time 5 day

With `NC(=O)N1c2ccccc2CC(=O)c2ccccc21` [OXCARBAZEPINE] the “ABSOLUTE BASOPHIL” value [1] was 0 CELLS/uL, the “ABSOLUTE EOSINOPHIL” value [1] was 112 CELLS/uL and the “ABSOLUTE LYMPHOCYTE” value [1] was 14390.67 CELLS/uL. For the same compound, the “ABSOLUTE MONOCYTE” value [1] was 0 CELLS/uL, the “ABSOLUTE SEGMENTED NEUTROPHIL” value [1] was 964 CELLS/uL and the BASOPHIL [1] was 0%. The EOSINOPHIL [1] was 0.67%, the “ERYTHROCYTE COUNT” value [1] was 5.76 x10E6/uL and the HEMATOCRIT [1] was 35.97%. For the same compound, the HEMOGLOBIN [1] was 14.53 G/DL, the “LEUKOCYTE COUNT” value [1] was 15.47 x10E3/uL and the LYMPHOCYTE [1] was 93.33%. The “MEAN CORPUSCULAR HEMOGLOBIN” value [1] was 25.2 pg, the “MEAN CORPUSCULAR HEMOGLOBIN CONCENTRATION” value [1] was 40.4 G/DL and the “MEAN CORPUSCULAR VOLUME” value [1] was 62.37 fL. For the same compound, the MONOCYTE [1] was 0%, the NEUTROPHIL [1] was 6% and the “NUCLEATED RED BLOOD CELLS” value [1] was 0.33 /100WBC. For the same compound, the “PLATELET COUNT” value [1] was 1403.33 x10E3/uL, the “ALANINE AMINOTRANSFERASE” value [1] was 47.67 u/L and the ALBUMIN [1] was 4.37 G/DL. The “ALKALINE PHOSPHATASE” value [1] was 374.67 u/L, the “ASPARTATE AMINOTRANSFERASE” value [1] was 83.33 u/L and the “BLOOD UREA NITROGEN” value [1] was 17 mg/dL. For the same compound, the “CARBON DIOXIDE” value [1] was 26.67 mmol/L, the CHLORIDE [1] was 102.33 MEQ/L and the CHOLESTEROL [1] was 67.67 mg/dL. For the same compound, the “CREATINE PHOSPHOKINASE” value [1] was 246.33 u/L, the CREATININE [1] was 0.16 mg/dL and the GLUCOSE [1] was 163.33 mg/dL. For the same compound, the “LACTATE DEHYDROGENASE” value [1] was 115.33 u/L, the LIPASE [1] was 8.67 u/L and the PHOSPHORUS [1] was 12.83 mg/dL. The POTASSIUM [1] was 6.85 MEQ/L, the SODIUM [1] was 146.7 MEQ/L and the “TOTAL BILIRUBIN” value [1] was 0.17 mg/dL. The “TOTAL PROTEIN” value [1] was 6.17 G/DL, the “URIC ACID” value [1] was 2.23 mg/dL and the “ABSOLUTE BASOPHIL” value [2] was 0 CELLS/uL. For the same compound, the “ABSOLUTE EOSINOPHIL” value [2] was 0 CELLS/uL, the “ABSOLUTE LYMPHOCYTE” value [2] was 14109.67 CELLS/uL and the “ABSOLUTE MONOCYTE” value [2] was 56.33 CELLS/uL. The “ABSOLUTE SEGMENTED NEUTROPHIL” value [2] was 1034 CELLS/uL, the BASOPHIL [2] was 0% and the EOSINOPHIL [2] was 0%. For the same compound, the “ERYTHROCYTE COUNT” value [2] was 6.38 x10E6/uL, the HEMATOCRIT [2] was 39.5% and the HEMOGLOBIN [2] was 15.47 G/DL. For the same compound, the “LEUKOCYTE COUNT” value [2] was 15.2 x10E3/uL, the LYMPHOCYTE [2] was 93.33% and the “MEAN CORPUSCULAR HEMOGLOBIN” value [2] was 24.27 pg. The “MEAN CORPUSCULAR HEMOGLOBIN CONCENTRATION” value [2] was 39.2 G/DL, the “MEAN CORPUSCULAR VOLUME” value [2] was 61.93 fL and the MONOCYTE [2] was 0.33%. For the same compound, the NEUTROPHIL [2] was 6.33%, the “NUCLEATED RED BLOOD CELLS” value [2] was 0 /100WBC and the “PLATELET COUNT” value [2] was 1432 x10E3/uL. The “ALANINE AMINOTRANSFERASE” value [2] was 82.67 u/L, the ALBUMIN [2] was 4.43 G/DL and the “ALKALINE PHOSPHATASE” value [2] was 485.33 u/L. The “ASPARTATE AMINOTRANSFERASE” value [2] was 91 u/L, the “BLOOD UREA NITROGEN” value [2] was 16.33 mg/dL and the “CARBON DIOXIDE” value [2] was 31 mmol/L. The CHLORIDE [2] was 101 MEQ/L, the CHOLESTEROL [2] was 73 mg/dL and the “CREATINE PHOSPHOKINASE” value [2] was 195 u/L. For the same compound, the CREATININE [2] was 0.2 mg/dL, the GLUCOSE [2] was 116 mg/dL and the “LACTATE DEHYDROGENASE” value [2] was 266 u/L. The LIPASE [2] was 11 u/L, the PHOSPHORUS [2] was 10.13 mg/dL and the POTASSIUM [2] was 6.83 MEQ/L. The SODIUM [2] was 145.67 MEQ/L, the “TOTAL BILIRUBIN” value [2] was 0.17 mg/dL and the “TOTAL PROTEIN” value [2] was 5.8 G/DL. The “URIC ACID” value [2] was 1.43 mg/dL, the “ABSOLUTE BASOPHIL” value [3] was 0 CELLS/uL and the “ABSOLUTE EOSINOPHIL” value [3] was 0 CELLS/uL. For the same compound, the “ABSOLUTE LYMPHOCYTE” value [3] was 15797.33 CELLS/uL, the “ABSOLUTE MONOCYTE” value [3] was 212.67 CELLS/uL and the “ABSOLUTE SEGMENTED NEUTROPHIL” value [3] was 2156.67 CELLS/uL. The BASOPHIL [3] was 0%, the EOSINOPHIL [3] was 0% and the “ERYTHROCYTE COUNT” value [3] was 5.81 x10E6/uL. For the same compound, the HEMATOCRIT [3] was 36.23%, the HEMOGLOBIN [3] was 14.8 G/DL and the “LEUKOCYTE COUNT” value [3] was 18.17 x10E3/uL. The LYMPHOCYTE [3] was 87.33%, the “MEAN CORPUSCULAR HEMOGLOBIN” value [3] was 25.47 pg and the “MEAN CORPUSCULAR HEMOGLOBIN CONCENTRATION” value [3] was 40.83 G/DL. For the same compound, the “MEAN CORPUSCULAR VOLUME” value [3] was 62.33 fL, the MONOCYTE [3] was 1% and the NEUTROPHIL [3] was 11.67%. For the same compound, the “NUCLEATED RED BLOOD CELLS” value [3] was 0 /100WBC, the “PLATELET COUNT” value [3] was 1349.67 x10E3/uL and the “ALANINE AMINOTRANSFERASE” value [3] was 60.67 u/L. For the same compound, the ALBUMIN [3] was 4.5 G/DL, the “ALKALINE PHOSPHATASE” value [3] was 338.67 u/L and the “ASPARTATE AMINOTRANSFERASE” value [3] was 86.33 u/L. For the same compound, the “BLOOD UREA NITROGEN” value [3] was 17.33 mg/dL, the “CARBON DIOXIDE” value [3] was 23.33 mmol/L and the CHLORIDE [3] was 99 MEQ/L. The CHOLESTEROL [3] was 93.67 mg/dL, the “CREATINE PHOSPHOKINASE” value [3] was 336.33 u/L and the CREATININE [3] was 0.28 mg/dL. The GLUCOSE [3] was 123 mg/dL, the “LACTATE DEHYDROGENASE” value [3] was 512.67 u/L and the LIPASE [3] was 13 u/L. It also gave a PHOSPHORUS [3] of 13.6 mg/dL, a POTASSIUM [3] of 7.68 MEQ/L and an SODIUM [3] of 142.17 MEQ/L. For the same compound, the “TOTAL BILIRUBIN” value [3] was 0.23 mg/dL, the “TOTAL PROTEIN” value [3] was 6.43 G/DL and the “URIC ACID” value [3] was 2.07 mg/dL.
